Laboratory results published in EP4667483A1, “HUMAN TRANSFERRIN RECEPTOR-BINDING PEPTIDE” (JCR Pharmaceuticals Co., Ltd., priority 2023, dated 2024).
pKd: −log10 of the molar value. Numbered stars: 1 amine (or outer) side, 2 acyl side, 3 side chain; on linkers, the order of the positions; unused ones are H or OH. Bridge positions count the residues as written; N and C are the ends. Square brackets hold non-standard residues; d marks the D form. Side chains are listed from the residue outwards. Peptide text beside a SMILES is read from it. * marks the point of attachment. Trp(1-CH2COOH) = N[C@@H](Cc1cn(CC(=O)O)c2ccccc12)C(=O)O; CH2CON(CH2CH2)2NCH2COOH = O=C(O)CN1CCN(C(=O)C*)CC1; NMePhe(4-COOH) = CN[C@@H](Cc1ccc(C(=O)O)cc1)C(=O)O; X1 = O=C([C@H](Cc1cccc(C(=O)[*:3])c1)N[*:1])[*:2]; Nle(6-morpholino) = N[C@@H](CCCCN1CCOCC1)C(=O)O; Phe(3-COOH) = N[C@@H](Cc1cccc(C(=O)O)c1)C(=O)O; Trp(7-aza) = N[C@@H](Cc1c[nH]c2ncccc12)C(=O)O; NH(CH2CH2O)8Me = COCCOCCOCCOCCOCCOCCOCCOCCN*; NMePhe(3-Cl) = CN[C@@H](Cc1cccc(Cl)c1)C(=O)O; Piperazinyl(4-CH2COOH) = O=C(O)CN1CCN(*)CC1; Trp(1-Me) = Cn1cc(C[C@H](N)C(=O)O)c2ccccc21; X5 = COc1cc(C[C@H](N[*:1])C(=O)[*:2])ccn1; 3Pal(6-NH2) = Nc1ccc(C[C@H](N)C(=O)O)cn1; NMeY = CN[C@@H](Cc1ccc(O)cc1)C(=O)O; Nva(3-Et) = CCC(CC)[C@H](N)C(=O)O; 4Pal = N[C@@H](Cc1ccncc1)C(=O)O; PEG4 = NCCOCCOCCOCCOCCC(=O)O; Carboxymethyl = O=C(O)C*; CO = O=C([*:1])[*:2]

Experiments:
[1] = molecular target: T1, human transferrin receptor (hTfR) (Homo sapiens, UniProt P02786); assay: SPR measurement under pH 6.0 conditions (Biacore T200, NTA chip, immobilized hTfR); format: binding; settings: read-out: hTfR SPR pH6.0 KD
[2] = molecular target: T1, human transferrin receptor (hTfR); assay: SPR measurement under pH 7.4 conditions (Biacore T200, CM3 chip, hTfR captured by His Tag antibody); format: binding; settings: read-out: hTfR SPR pH7.4 KD
[3] = SPR, pH 6.0, peptide with the linker named in the table
[4] = SPR, pH 7.4, peptide with the linker named in the table

T1 sequence (P02786 whole entry): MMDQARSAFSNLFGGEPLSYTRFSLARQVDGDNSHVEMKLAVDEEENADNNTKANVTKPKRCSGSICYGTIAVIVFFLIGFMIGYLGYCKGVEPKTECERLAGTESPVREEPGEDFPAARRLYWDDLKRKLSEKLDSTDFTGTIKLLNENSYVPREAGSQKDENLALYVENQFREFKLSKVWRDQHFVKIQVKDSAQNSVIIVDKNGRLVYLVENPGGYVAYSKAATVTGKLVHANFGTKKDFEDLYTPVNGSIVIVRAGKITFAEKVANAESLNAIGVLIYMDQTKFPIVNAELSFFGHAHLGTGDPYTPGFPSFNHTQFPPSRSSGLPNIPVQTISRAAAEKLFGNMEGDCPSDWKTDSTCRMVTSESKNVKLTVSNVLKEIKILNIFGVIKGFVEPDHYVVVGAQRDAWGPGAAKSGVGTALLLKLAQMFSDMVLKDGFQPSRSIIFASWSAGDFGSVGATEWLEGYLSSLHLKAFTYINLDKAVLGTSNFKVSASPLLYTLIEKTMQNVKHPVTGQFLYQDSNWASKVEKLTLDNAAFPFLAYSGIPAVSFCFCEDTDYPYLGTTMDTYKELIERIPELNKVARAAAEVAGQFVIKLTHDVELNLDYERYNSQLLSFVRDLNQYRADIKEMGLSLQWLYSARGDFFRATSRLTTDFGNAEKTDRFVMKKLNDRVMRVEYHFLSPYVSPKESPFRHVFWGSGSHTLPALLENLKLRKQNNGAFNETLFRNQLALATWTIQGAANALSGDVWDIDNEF

Compound | pKd ([1]; pH 6.0, single-cycle kinetics) | pKd ([2]; pH 7.4, single-cycle kinetics) | pKd [1, 3] | pKd [2, 4]
CC[C@H](C)[C@@H]1NC(=O)[C@H](Cc2ccc(OCC(=O)N3CCN(CC(=O)O)CC3)cc2)NC(=O)[C@H](Cc2ccc(O)cc2)NC(=O)[C@H](CC(N)=O)NC(=O)[C@H](Cc2cn(CC(=O)O)c3ccccc23)NC(=O)[C@H](C(C)C)NC(=O)[C@H](Cc2cccc(Cl)c2)N(C)C(=O)[C@H](C(C)C)NC(=O)[C@H](C)NC(=O)CSC[C@@H](C(=O)NCCOCCOCCOCCOCCC(N)=O)NC(=O)[C@H](Cc2ccc(O)cc2)N(C)C(=O)[C@H](Cc2ccccc2)NC(=O)[C@H](CCCCN2CCOCC2)NC(=O)[C@H](CCC(=O)NCCOCCOCCOCCOCCOCCOCCOCCOC)NC(=O)[C@H]([C@@H](C)CC)NC1=O [compound 30] ({CH2CO}-AV[NMePhe(3-Cl)]V[Trp(1-CH2COOH)]NYY(CH2CON(CH2CH2)2NCH2COOH)IIE(NH(CH2CH2O)8Me)[Nle(6-morpholino)]F[NMeY]C[PEG4]-NH2; thioether N-15) | 7.02 | 7.99 |  | 
CCC(CC)[C@@H]1NC(=O)[C@H](Cc2ccc(OC)cc2)NC(=O)[C@H](Cc2ccc(O)cc2)NC(=O)[C@H](CC(N)=O)NC(=O)[C@H](Cc2c[nH]c3ccccc23)NC(=O)[C@H](C(C)C)NC(=O)[C@H](Cc2cccc(Cl)c2)N(C)C(=O)[C@H](C(C)C)NC(=O)[C@H](C)NC(=O)CSC[C@@H](C(=O)NCCOCCOCCOCCOCCC(N)=O)NC(=O)[C@H](Cc2ccc(C(=O)O)cc2)N(C)C(=O)[C@H](Cc2cccc(C(=O)NCCOCCOCCOCCOCCC(=O)O)c2)NC(=O)[C@H](CCCNC(=N)N)NC(=O)[C@H](CCC(N)=O)NC(=O)[C@H]([C@@H](C)CC)NC1=O [compound 111] ({CH2CO}-AV[NMePhe(3-Cl)]VWNYY(Me)[Nva(3-Et)]IQR[X1](PEG4)[NMePhe(4-COOH)]C[PEG4]-NH2; thioether N-15) |  |  | 8.46 | 8.69
CCC(CC)[C@@H]1NC(=O)[C@H](Cc2ccc(OC)cc2)NC(=O)[C@H](Cc2ccc(O)cc2)NC(=O)[C@H](CC(N)=O)NC(=O)[C@H](Cc2c[nH]c3ncccc23)NC(=O)[C@H](C(C)C)NC(=O)[C@H](Cc2cccc(Cl)c2)N(C)C(=O)[C@H](C(C)C)NC(=O)[C@H](C)NC(=O)CSC[C@@H](C(=O)NCCOCCOCCOCCOCCC(N)=O)NC(=O)[C@H](Cc2ccc(C(=O)O)cc2)N(C)C(=O)[C@H](Cc2ccncc2)NC(=O)[C@H](CCCNC(=N)N)NC(=O)[C@H](CCCCN2CCOCC2)NC(=O)[C@H]([C@@H](C)CC)NC1=O [compound 114] ({CH2CO}-AV[NMePhe(3-Cl)]V[Trp(7-aza)]NYY(Me)[Nva(3-Et)]I[Nle(6-morpholino)]R[4Pal][NMePhe(4-COOH)]C[PEG4]-NH2; thioether N-15) |  |  | 7.97 | 8.88
CC[C@H](C)[C@@H]1NC(=O)[C@H](Cc2ccc(OC)cc2)NC(=O)[C@H](Cc2ccc(O)cc2)NC(=O)[C@H](CC(N)=O)NC(=O)[C@H](Cc2c[nH]c3ncccc23)NC(=O)[C@H](C(C)C)NC(=O)[C@H](Cc2cccc(Cl)c2)N(C)C(=O)[C@H](C(C)C)NC(=O)[C@H](C)NC(=O)CSC[C@@H](C(=O)NCCOCCOCCOCCOCCC(N)=O)NC(=O)[C@H](Cc2ccc(O)cc2)N(C)C(=O)[C@H](Cc2cccc(C(=O)NCCOCCOCCOCCOCCC(=O)O)c2)NC(=O)[C@H](CCCNC(=N)N)NC(=O)[C@H](CCC(=O)NCCOCCOCCOCCOCCC(=O)O)NC(=O)[C@H]([C@@H](C)CC)NC1=O [compound 146] |  |  | 7.94 | 8.56
CC[C@H](C)[C@@H]1NC(=O)[C@H](Cc2ccc(OC)cc2)NC(=O)[C@H](Cc2ccc(N)nc2)NC(=O)[C@H](CC(N)=O)NC(=O)[C@H](Cc2c[nH]c3ncccc23)NC(=O)[C@H](C(C)C)NC(=O)[C@H](Cc2cccc(Cl)c2)N(C)C(=O)[C@H](C(C)C)NC(=O)[C@H](C)NC(=O)CSC[C@@H](C(=O)NCCOCCOCCOCCOCCC(N)=O)NC(=O)[C@H](Cc2ccc(O)cc2)N(C)C(=O)[C@H](Cc2ccncc2)NC(=O)[C@H](CCCCNC(=O)N2CCN(CC(=O)O)CC2)NC(=O)[C@H](CCCCN2CCOCC2)NC(=O)[C@H]([C@@H](C)CC)NC1=O [compound 5] ({CH2CO}-AV[NMePhe(3-Cl)]V[Trp(7-aza)]N[3Pal(6-NH2)]Y(Me)II[Nle(6-morpholino)]K([CO-Piperazinyl(4-CH2COOH)])[4Pal][NMeY]C[PEG4]-NH2; thioether N-15) | 6.93 | 8.20 |  | 
CC[C@H](C)[C@@H]1NC(=O)[C@H](Cc2ccc(OCC(=O)N3CCN(CC(=O)O)CC3)cc2)NC(=O)[C@H](Cc2ccc(O)cc2)NC(=O)[C@H](CC(N)=O)NC(=O)[C@H](Cc2c[nH]c3ncccc23)NC(=O)[C@H](C(C)C)NC(=O)[C@H](Cc2cccc(Cl)c2)N(C)C(=O)[C@H](C(C)C)NC(=O)[C@H](C)NC(=O)CSC[C@@H](C(=O)NCCOCCOCCOCCOCCC(N)=O)NC(=O)[C@H](Cc2ccc(O)cc2)N(C)C(=O)[C@H](Cc2ccncc2)NC(=O)[C@H](CCCCN2CCOCC2)NC(=O)[C@H](CCCCNC(=O)N2CCN(CC(=O)O)CC2)NC(=O)[C@H]([C@@H](C)CC)NC1=O [compound 19] ({CH2CO}-AV[NMePhe(3-Cl)]V[Trp(7-aza)]NYY(CH2CON(CH2CH2)2NCH2COOH)IIK([CO-Piperazinyl(4-CH2COOH)])[Nle(6-morpholino)][4Pal][NMeY]C[PEG4]-NH2; thioether N-15) | 8.10 | 8.32 |  | 
CCC(CC)[C@@H]1NC(=O)[C@H](Cc2ccc(OCC(=O)O)cc2)NC(=O)[C@H](Cc2ccc(O)cc2)NC(=O)[C@H](CC(N)=O)NC(=O)[C@H](Cc2cn(CC(=O)O)c3ccccc23)NC(=O)[C@H](C(C)C)NC(=O)[C@H](Cc2cccc(Cl)c2)N(C)C(=O)[C@H](C(C)C)NC(=O)[C@H](C)NC(=O)CSC[C@@H](C(=O)NCCOCCOCCOCCOCCC(N)=O)NC(=O)[C@H](Cc2ccc(O)cc2)N(C)C(=O)[C@H](Cc2ccnc(OC)c2)NC(=O)[C@H](CCCNC(=N)N)NC(=O)[C@H](CCC(N)=O)NC(=O)[C@H]([C@@H](C)CC)NC1=O [compound 103] ({CH2CO}-AV[NMePhe(3-Cl)]V[Trp(1-CH2COOH)]NYY(Carboxymethyl)[Nva(3-Et)]IQR[X5][NMeY]C[PEG4]-NH2; thioether N-15) |  |  | 7.02 | 7.94
CC[C@H](C)[C@@H]1NC(=O)[C@H](Cc2ccc(OCC(=O)O)cc2)NC(=O)[C@H](Cc2ccc(N)nc2)NC(=O)[C@H](CC(N)=O)NC(=O)[C@H](Cc2c[nH]c3ccccc23)NC(=O)[C@H](C(C)C)NC(=O)[C@H](Cc2cccc(Cl)c2)N(C)C(=O)[C@H](C(C)C)NC(=O)[C@H](C)NC(=O)CSC[C@@H](C(=O)NCCOCCOCCOCCOCCC(N)=O)NC(=O)[C@H](Cc2ccc(C(=O)O)cc2)N(C)C(=O)[C@H](Cc2cccc(C(=O)NCCOCCOCCOCCOCCC(=O)O)c2)NC(=O)[C@H](CCCNC(=N)N)NC(=O)[C@H](CCC(N)=O)NC(=O)[C@H]([C@@H](C)CC)NC1=O [compound 116] ({CH2CO}-AV[NMePhe(3-Cl)]VWN[3Pal(6-NH2)]Y(Carboxymethyl)IIQR[X1](PEG4)[NMePhe(4-COOH)]C[PEG4]-NH2; thioether N-15) |  |  | 7.45 | 8.07
CCC(CC)[C@@H]1NC(=O)[C@H](Cc2ccc(OCC(=O)N3CCN(CC(=O)O)CC3)cc2)NC(=O)[C@H](Cc2ccc(N)nc2)NC(=O)[C@H](CC(N)=O)NC(=O)[C@H](Cc2cn(CC(=O)O)c3ccccc23)NC(=O)[C@H](C(C)C)NC(=O)[C@H](Cc2cccc(Cl)c2)N(C)C(=O)[C@H](C(C)C)NC(=O)[C@H](C)NC(=O)CSC[C@@H](C(=O)NCCOCCOCCOCCOCCC(N)=O)NC(=O)[C@H](Cc2ccc(O)cc2)N(C)C(=O)[C@H](Cc2cccc(C(=O)O)c2)NC(=O)[C@H](CCCCN2CCOCC2)NC(=O)[C@H](CCC(N)=O)NC(=O)[C@H]([C@@H](C)CC)NC1=O [compound 52] ({CH2CO}-AV[NMePhe(3-Cl)]V[Trp(1-CH2COOH)]N[3Pal(6-NH2)]Y(CH2CON(CH2CH2)2NCH2COOH)[Nva(3-Et)]IQ[Nle(6-morpholino)][Phe(3-COOH)][NMeY]C[PEG4]-NH2; thioether N-15) | 6.20 | 5.24 |  | 
CCC(CC)[C@@H]1NC(=O)[C@H](Cc2ccc(O)cc2)NC(=O)[C@H](Cc2ccc(O)cc2)NC(=O)[C@H](CC(N)=O)NC(=O)[C@H](Cc2cn(C)c3ccccc23)NC(=O)[C@H](C(C)C)NC(=O)[C@H](Cc2cccc(Cl)c2)N(C)C(=O)[C@H](C(C)C)NC(=O)[C@H](C)NC(=O)CSC[C@@H](C(=O)NCCOCCOCCOCCOCCC(N)=O)NC(=O)[C@H](Cc2ccc(O)cc2)N(C)C(=O)[C@H](Cc2ccncc2)NC(=O)[C@H](CCCNC(=N)N)NC(=O)[C@H](CCCCN)NC(=O)[C@H]([C@@H](C)CC)NC1=O [compound 127] ({CH2CO}-AV[NMePhe(3-Cl)]V[Trp(1-Me)]NYY[Nva(3-Et)]IKR[4Pal][NMeY]C[PEG4]-NH2; thioether N-15) |  |  | 8.28 | 8.80
CC[C@H](C)[C@@H]1NC(=O)[C@H](Cc2ccc(OCC(=O)N3CCN(CC(=O)O)CC3)cc2)NC(=O)[C@H](Cc2ccc(O)cc2)NC(=O)[C@H](CC(N)=O)NC(=O)[C@H](Cc2cn(CC(=O)O)c3ccccc23)NC(=O)[C@H](C(C)C)NC(=O)[C@H](Cc2cccc(Cl)c2)N(C)C(=O)[C@H](C(C)C)NC(=O)[C@H](C)NC(=O)CSC[C@@H](C(=O)NCCOCCOCCOCCOCCC(N)=O)NC(=O)[C@H](Cc2ccc(O)cc2)N(C)C(=O)[C@H](Cc2ccncc2)NC(=O)[C@H](CCCCN2CCOCC2)NC(=O)[C@H](CCC(=O)NCCOCCOCCOCCOCCOCCOCCOCCOC)NC(=O)[C@H]([C@@H](C)CC)NC1=O [compound 22] | 6.69 | 8.39 |  | 
CC[C@H](C)[C@@H]1NC(=O)[C@H](Cc2ccc(OCC(=O)N3CCN(CC(=O)O)CC3)cc2)NC(=O)[C@H](Cc2ccc(O)cc2)NC(=O)[C@H](CC(N)=O)NC(=O)[C@H](Cc2cn(CC(=O)O)c3ccccc23)NC(=O)[C@H](C(C)C)NC(=O)[C@H](Cc2cccc(Cl)c2)N(C)C(=O)[C@H](C(C)C)NC(=O)[C@H](C)NC(=O)CSC[C@@H](C(=O)NCCOCCOCCOCCOCCC(N)=O)NC(=O)[C@H](Cc2ccc(O)cc2)N(C)C(=O)[C@H](Cc2cccc(C(=O)O)c2)NC(=O)[C@H](CCCCN2CCOCC2)NC(=O)[C@H](CCCCN2CCOCC2)NC(=O)[C@H]([C@@H](C)CC)NC1=O [compound 32] ({CH2CO}-AV[NMePhe(3-Cl)]V[Trp(1-CH2COOH)]NYY(CH2CON(CH2CH2)2NCH2COOH)II[Nle(6-morpholino)][Nle(6-morpholino)][Phe(3-COOH)][NMeY]C[PEG4]-NH2; thioether N-15) | 7.57 | 8.66 |  | 
